Starred links: 1 amine or outer side, 2 acyl side, 3 side chain; linkers in the order of their positions; H or OH if unused. Non-standard residues stand in square brackets, D forms with d. Residues, ends and D or L forms follow the SMILES beside them. Trp(4-Cl)(βS-Me) = C[C@@H](c1c[nH]c2cccc(Cl)c12)[C@H](N)C(=O)O; dPro(4R-(4-pyridylmethyl)) = O=C(O)[C@H]1C[C@@H](Cc2ccncc2)CN1; X17 = CN(C)C(=O)c1ccc(-c2ccc(C[C@H](N[*:1])C(=O)[*:2])cc2)cc1; Trp(βS-Me,4-F) = C[C@@H](c1c[nH]c2cccc(F)c12)[C@H](N)C(=O)O; Bip(4'-CONH2) = NC(=O)c1ccc(-c2ccc(C[C@H](N)C(=O)O)cc2)cc1; Bip(4'-COOH) = N[C@@H](Cc1ccc(-c2ccc(C(=O)O)cc2)cc1)C(=O)O; dPro(4R-Bzl(4-F)) = O=C(O)[C@H]1C[C@@H](Cc2ccc(F)cc2)CN1; dPro(3S-(4-F-Bn)) = O=C(O)[C@@H]1NCC[C@@H]1Cc1ccc(F)cc1; 1Nal(3S-Me) = C[C@@H](c1cccc2ccccc12)[C@H](N)C(=O)O; Ala(morpholin-4-yl) = N[C@@H](CN1CCOCC1)C(=O)O; Ala(piperazin-1-yl) = N[C@@H](CN1CCNCC1)C(=O)O; Ala(pyrimidin-5-yl) = N[C@@H](Cc1cncnc1)C(=O)O; Phe(4-COOH) = N[C@@H](Cc1ccc(C(=O)O)cc1)C(=O)O; X25 = C[N+](C)(C)CCC[C@H](N[*:1])C(=O)[*:2]; Bip = N[C@@H](Cc1ccc(-c2ccccc2)cc1)C(=O)O; Lys(Me3) = C[N+](C)(C)CCCC[C@H](N)C(=O)O; Pro(cis-4-F) = O=C(O)[C@@H]1C[C@H](F)CN1; Ala(4-THP) = N[C@@H](CC1CCOCC1)C(=O)O; d(αMeD) = C[C@@](N)(CC(=O)O)C(=O)O; 4Pal = N[C@@H](Cc1ccncc1)C(=O)O; aThr = C[C@H](O)[C@H](N)C(=O)O; Dab = NCC[C@H](N)C(=O)O; Aib = CC(C)(N)C(=O)O
target: T1, IL-1β (Homo sapiens, UniProt P01584); experiment: IL-6 assay in MRC5 cells: inhibition of IL-1β induced IL-6 secretion (AlphaLISA); type: cell-based; details: inhibition of IL-1β induced IL-6 secretion in MRC5 cells; compound pre-incubated 1 hour with recombinant human IL-1β; read-out: MRC5 IC50
T1 construct: purchased BioLegend 579404
Procedure, shortened: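 Compound was pre-incubated 1 h at ambient temperature with recombinant human IL-1β at 2λ EC80 before adding human lung fibroblast MRC5 cells (3000/well) in EMEM with 0.025% BSA. After overnight culture at 37 °C, 5% CO2, secreted IL-6 in conditioned medium was measured by AlphaLISA; IC50 from 4-parameter logistic fits.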

T1 sequence (P01584 117-269): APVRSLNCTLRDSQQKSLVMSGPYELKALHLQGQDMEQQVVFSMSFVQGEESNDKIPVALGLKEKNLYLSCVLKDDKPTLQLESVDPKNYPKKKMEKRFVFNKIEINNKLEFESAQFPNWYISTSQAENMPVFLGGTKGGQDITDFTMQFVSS

Row | SMILES | IC50
1 | C[C@H](O)[C@@H]1NC(=O)[C@@](C)(CC(=O)O)NC(=O)[C@H](Cc2c[nH]c3ccccc23)NC(=O)[C@H](CO)NC(=O)C(C)(C)NC(=O)[C@H]([C@@H](C)c2cccc3ccccc23)NC(=O)[C@@H]2C[C@H](F)CN2C(=O)CNC(=O)[C@H](Cc2ccc(C(=O)O)cc2)NC(=O)[C@H](Cc2ccncc2)NC(=O)[C@H](Cc2ccc(-c3ccccc3)cc2)NC(=O)[C@H]2C[C@@H](Cc3ccncc3)CN2C(=O)CNC(=O)[C@H](CCN)NC(=O)[C@H](CCC(N)=O)NC1=O [Example 288] (cyclo([Bip][4Pal][Phe(4-COOH)]G[Pro(cis-4-F)][1Nal(3S-Me)][Aib]SW[d(αMeD)][aThr]Q[Dab]G[dPro(4R-(4-pyridylmethyl))])) | 0.019 nM
2 | C[C@H](O)[C@@H]1NC(=O)[C@@](C)(CC(=O)O)NC(=O)[C@H](Cc2c[nH]c3ccccc23)NC(=O)[C@H](CO)NC(=O)C(C)(C)NC(=O)[C@H]([C@@H](C)c2c[nH]c3cccc(Cl)c23)NC(=O)[C@@H]2C[C@H](F)CN2C(=O)CNC(=O)[C@H](Cc2ccc(C(=O)O)cc2)NC(=O)[C@H](Cc2ccncc2)NC(=O)[C@H](Cc2ccc(-c3ccccc3)cc2)NC(=O)[C@H]2C[C@@H](Cc3ccncc3)CN2C(=O)CNC(=O)[C@H](CCN)NC(=O)[C@H](CCC(N)=O)NC1=O [Example 289] (cyclo([Bip][4Pal][Phe(4-COOH)]G[Pro(cis-4-F)][Trp(4-Cl)(βS-Me)][Aib]SW[d(αMeD)][aThr]Q[Dab]G[dPro(4R-(4-pyridylmethyl))])) | 0.015 nM
3 | C[C@@H](c1cccc2ccccc12)[C@@H]1NC(=O)[C@@H]2C[C@H](F)CN2C(=O)CNC(=O)[C@H](Cc2ccc(C(=O)O)cc2)NC(=O)[C@H](Cc2ccncc2)NC(=O)[C@H](Cc2ccc(-c3ccccc3)cc2)NC(=O)[C@H]2C[C@@H](Cc3ccncc3)CN2C(=O)CNC(=O)[C@H](CCN)NC(=O)[C@H](CCC(N)=O)NC(=O)[C@H](CC2CCOCC2)NC(=O)[C@@](C)(CC(=O)O)NC(=O)[C@H](Cc2c[nH]c3ccccc23)NC(=O)[C@H](CO)NC(=O)C(C)(C)NC1=O [Example 290] (cyclo([Bip][4Pal][Phe(4-COOH)]G[Pro(cis-4-F)][1Nal(3S-Me)][Aib]SW[d(αMeD)][Ala(4-THP)]Q[Dab]G[dPro(4R-(4-pyridylmethyl))])) | 0.018 nM
4 | C[C@@H](c1cccc2ccccc12)[C@@H]1NC(=O)[C@@H]2C[C@H](F)CN2C(=O)CNC(=O)[C@H](Cc2ccc(C(=O)O)cc2)NC(=O)[C@H](Cc2ccncc2)NC(=O)[C@H](Cc2ccc(-c3ccccc3)cc2)NC(=O)[C@H]2C[C@@H](Cc3ccncc3)CN2C(=O)CNC(=O)[C@H](CCN)NC(=O)[C@H](CCC(N)=O)NC(=O)[C@H](Cc2cncnc2)NC(=O)[C@@](C)(CC(=O)O)NC(=O)[C@H](Cc2c[nH]c3ccccc23)NC(=O)[C@H](CO)NC(=O)C(C)(C)NC1=O [Example 291] (cyclo([Bip][4Pal][Phe(4-COOH)]G[Pro(cis-4-F)][1Nal(3S-Me)][Aib]SW[d(αMeD)][Ala(pyrimidin-5-yl)]Q[Dab]G[dPro(4R-(4-pyridylmethyl))])) | 0.018 nM
5 | C[C@@H](c1c[nH]c2cccc(Cl)c12)[C@@H]1NC(=O)[C@@H]2C[C@H](F)CN2C(=O)CNC(=O)[C@H](Cc2ccc(C(=O)O)cc2)NC(=O)[C@H](Cc2ccncc2)NC(=O)[C@H](Cc2ccc(-c3ccccc3)cc2)NC(=O)[C@H]2C[C@@H](Cc3ccncc3)CN2C(=O)CNC(=O)[C@H](CCN)NC(=O)[C@H](CCC(N)=O)NC(=O)[C@H](Cc2cncnc2)NC(=O)[C@@](C)(CC(=O)O)NC(=O)[C@H](Cc2c[nH]c3ccccc23)NC(=O)[C@H](CO)NC(=O)C(C)(C)NC1=O [Example 292] (cyclo([Bip][4Pal][Phe(4-COOH)]G[Pro(cis-4-F)][Trp(4-Cl)(βS-Me)][Aib]SW[d(αMeD)][Ala(pyrimidin-5-yl)]Q[Dab]G[dPro(4R-(4-pyridylmethyl))])) | 0.015 nM
6 | C[C@@H](c1c[nH]c2cccc(F)c12)[C@@H]1NC(=O)[C@@H]2C[C@H](F)CN2C(=O)CNC(=O)[C@H](Cc2ccc(C(=O)O)cc2)NC(=O)[C@H](Cc2ccncc2)NC(=O)[C@H](Cc2ccc(-c3ccccc3)cc2)NC(=O)[C@H]2C[C@@H](Cc3ccncc3)CN2C(=O)CNC(=O)[C@H](CCN)NC(=O)[C@H](CCC(N)=O)NC(=O)[C@H](CC2CCOCC2)NC(=O)[C@@](C)(CC(=O)O)NC(=O)[C@H](Cc2c[nH]c3ccccc23)NC(=O)[C@H](CO)NC(=O)C(C)(C)NC1=O [Example 294] (cyclo([Bip][4Pal][Phe(4-COOH)]G[Pro(cis-4-F)][Trp(βS-Me,4-F)][Aib]SW[d(αMeD)][Ala(4-THP)]Q[Dab]G[dPro(4R-(4-pyridylmethyl))])) | 0.014 nM
7 | C[C@@H](c1c[nH]c2cccc(F)c12)[C@@H]1NC(=O)[C@@H]2C[C@H](F)CN2C(=O)CNC(=O)[C@H](Cc2ccc(C(=O)O)cc2)NC(=O)[C@H](Cc2ccncc2)NC(=O)[C@H](Cc2ccc(-c3ccc(C(=O)O)cc3)cc2)NC(=O)[C@H]2C[C@@H](Cc3ccc(F)cc3)CN2C(=O)CNC(=O)[C@H](CCN)NC(=O)[C@H](CCC(N)=O)NC(=O)[C@H](CCC[N+](C)(C)C)NC(=O)C(C)(C)NC(=O)[C@H](Cc2c[nH]c3ccccc23)NC(=O)[C@H](CO)NC(=O)C(C)(C)NC1=O [Example 297] (cyclo([Bip(4'-COOH)][4Pal][Phe(4-COOH)]G[Pro(cis-4-F)][Trp(βS-Me,4-F)][Aib]SW[Aib][X25]Q[Dab]G[dPro(4R-Bzl(4-F))])) | 0.022 nM
8 | C[C@@H](c1c[nH]c2cccc(F)c12)[C@@H]1NC(=O)[C@@H]2C[C@H](F)CN2C(=O)CNC(=O)[C@H](Cc2ccc(C(=O)O)cc2)NC(=O)[C@H](Cc2ccncc2)NC(=O)[C@H](Cc2ccc(-c3ccc(C(=O)O)cc3)cc2)NC(=O)[C@H]2C[C@@H](Cc3ccc(F)cc3)CN2C(=O)CNC(=O)[C@H](CCN)NC(=O)[C@H](CCC(N)=O)NC(=O)[C@H](CCCC[N+](C)(C)C)NC(=O)C(C)(C)NC(=O)[C@H](Cc2c[nH]c3ccccc23)NC(=O)[C@H](CO)NC(=O)C(C)(C)NC1=O [Example 298] (cyclo([Bip(4'-COOH)][4Pal][Phe(4-COOH)]G[Pro(cis-4-F)][Trp(βS-Me,4-F)][Aib]SW[Aib][Lys(Me3)]Q[Dab]G[dPro(4R-Bzl(4-F))])) | 0.015 nM

The next compounds have a lower IC50 than those just listed; values first:

Row | IC50 | SMILES
9 | 0.01 nM | C[C@@H](c1c[nH]c2cccc(F)c12)[C@@H]1NC(=O)[C@@H]2C[C@H](F)CN2C(=O)CNC(=O)[C@H](Cc2ccc(C(=O)O)cc2)NC(=O)[C@H](Cc2ccncc2)NC(=O)[C@H](Cc2ccc(-c3ccc(C(=O)O)cc3)cc2)NC(=O)[C@H]2[C@@H](Cc3ccc(F)cc3)CCN2C(=O)CNC(=O)[C@H](CCN)NC(=O)[C@H](CCC(N)=O)NC(=O)[C@H](CN2CCOCC2)NC(=O)[C@@](C)(CC(=O)O)NC(=O)[C@H](Cc2c[nH]c3ccccc23)NC(=O)[C@H](CO)NC(=O)C(C)(C)NC1=O [Example 286] (cyclo([Bip(4'-COOH)][4Pal][Phe(4-COOH)]G[Pro(cis-4-F)][Trp(βS-Me,4-F)][Aib]SW[d(αMeD)][Ala(morpholin-4-yl)]Q[Dab]G[dPro(3S-(4-F-Bn))]))
10 | 0.011 nM | C[C@@H](c1c[nH]c2cccc(F)c12)[C@@H]1NC(=O)[C@@H]2C[C@H](F)CN2C(=O)CNC(=O)[C@H](Cc2ccc(C(=O)O)cc2)NC(=O)[C@H](Cc2ccncc2)NC(=O)[C@H](Cc2ccc(-c3ccc(C(=O)O)cc3)cc2)NC(=O)[C@H]2[C@@H](Cc3ccc(F)cc3)CCN2C(=O)CNC(=O)[C@H](CCN)NC(=O)[C@H](CCC(N)=O)NC(=O)[C@H](CN2CCNCC2)NC(=O)[C@@](C)(CC(=O)O)NC(=O)[C@H](Cc2c[nH]c3ccccc23)NC(=O)[C@H](CO)NC(=O)C(C)(C)NC1=O [Example 287] (cyclo([Bip(4'-COOH)][4Pal][Phe(4-COOH)]G[Pro(cis-4-F)][Trp(βS-Me,4-F)][Aib]SW[d(αMeD)][Ala(piperazin-1-yl)]Q[Dab]G[dPro(3S-(4-F-Bn))]))
11 | 0.01 nM | C[C@H](O)[C@@H]1NC(=O)[C@@](C)(CC(=O)O)NC(=O)[C@H](Cc2c[nH]c3ccccc23)NC(=O)[C@H](CO)NC(=O)C(C)(C)NC(=O)[C@H]([C@@H](C)c2c[nH]c3cccc(F)c23)NC(=O)[C@@H]2C[C@H](F)CN2C(=O)CNC(=O)[C@H](Cc2ccc(C(=O)O)cc2)NC(=O)[C@H](Cc2ccncc2)NC(=O)[C@H](Cc2ccc(-c3ccccc3)cc2)NC(=O)[C@H]2C[C@@H](Cc3ccncc3)CN2C(=O)CNC(=O)[C@H](CCN)NC(=O)[C@H](CCC(N)=O)NC1=O [Example 293] (cyclo([Bip][4Pal][Phe(4-COOH)]G[Pro(cis-4-F)][Trp(βS-Me,4-F)][Aib]SW[d(αMeD)][aThr]Q[Dab]G[dPro(4R-(4-pyridylmethyl))]))
12 | 0.012 nM | C[C@@H](c1c[nH]c2cccc(F)c12)[C@@H]1NC(=O)[C@@H]2C[C@H](F)CN2C(=O)CNC(=O)[C@H](Cc2ccc(C(=O)O)cc2)NC(=O)[C@H](Cc2ccncc2)NC(=O)[C@H](Cc2ccc(-c3ccc(C(=O)N(C)C)cc3)cc2)NC(=O)[C@H]2C[C@@H](Cc3ccncc3)CN2C(=O)CNC(=O)[C@H](CCN)NC(=O)[C@H](CCC(N)=O)NC(=O)[C@H](CC2CCOCC2)NC(=O)[C@@](C)(CC(=O)O)NC(=O)[C@H](Cc2c[nH]c3ccccc23)NC(=O)[C@H](CO)NC(=O)C(C)(C)NC1=O [Example 295] (cyclo([X17][4Pal][Phe(4-COOH)]G[Pro(cis-4-F)][Trp(βS-Me,4-F)][Aib]SW[d(αMeD)][Ala(4-THP)]Q[Dab]G[dPro(4R-(4-pyridylmethyl))]))
13 | 0.013 nM | C[C@@H](c1c[nH]c2cccc(F)c12)[C@@H]1NC(=O)[C@@H]2C[C@H](F)CN2C(=O)CNC(=O)[C@H](Cc2ccc(C(=O)O)cc2)NC(=O)[C@H](Cc2ccncc2)NC(=O)[C@H](Cc2ccc(-c3ccc(C(N)=O)cc3)cc2)NC(=O)[C@H]2C[C@@H](Cc3ccncc3)CN2C(=O)CNC(=O)[C@H](CCN)NC(=O)[C@H](CCC(N)=O)NC(=O)[C@H](CC2CCOCC2)NC(=O)[C@@](C)(CC(=O)O)NC(=O)[C@H](Cc2c[nH]c3ccccc23)NC(=O)[C@H](CO)NC(=O)C(C)(C)NC1=O [Example 296] (cyclo([Bip(4'-CONH2)][4Pal][Phe(4-COOH)]G[Pro(cis-4-F)][Trp(βS-Me,4-F)][Aib]SW[d(αMeD)][Ala(4-THP)]Q[Dab]G[dPro(4R-(4-pyridylmethyl))]))

Source: US20260242419A1, “A CYCLIC PEPTIDE FOR TRAPPING INTERLEUKIN-1 BETA” (Merck Sharp & Dohme LLC, priority 2023, published 2026)
